Assay results: patent US20170209427A1, “USE OF LAQUINIMOD TO DELAY HUNTINGTON'S DISEASE PROGRESSION” (Teva Pharmaceutical Industries, Ltd., priority 2013, published 2017)

Columns and labels:
[1] = system: patients with relapsing remitting MS; details: after 1 year of treatment; cited from earlier work
clinical = assay: clinical; parameters: species or system humans; details: human, in vivo
CYP3A4 = target: T1, CYP3A4 (Homo sapiens, UniProt P08684); assay: Metabolism of laquinimod in the liver; type: in vivo; details: humans
T1 construct: from tissue; host or cells: human liver (in vivo)
T1 sequence (P08684 whole entry): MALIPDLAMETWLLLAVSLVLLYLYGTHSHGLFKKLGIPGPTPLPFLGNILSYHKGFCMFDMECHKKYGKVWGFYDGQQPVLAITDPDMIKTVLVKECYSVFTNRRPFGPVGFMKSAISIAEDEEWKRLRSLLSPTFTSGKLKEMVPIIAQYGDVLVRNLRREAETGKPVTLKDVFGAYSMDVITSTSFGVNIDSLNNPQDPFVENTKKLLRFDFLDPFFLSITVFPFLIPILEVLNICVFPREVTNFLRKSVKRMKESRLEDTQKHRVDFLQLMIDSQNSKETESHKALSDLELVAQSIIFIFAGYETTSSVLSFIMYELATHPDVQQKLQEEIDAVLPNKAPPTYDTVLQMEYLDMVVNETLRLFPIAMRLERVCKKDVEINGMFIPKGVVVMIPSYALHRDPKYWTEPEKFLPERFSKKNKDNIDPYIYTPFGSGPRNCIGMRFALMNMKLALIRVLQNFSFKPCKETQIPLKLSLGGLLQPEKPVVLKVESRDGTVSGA

patients with HD = assay: Phase II randomized, double-blind, placebo-controlled clinical trial of laquinimod in Huntington's disease; type: in vivo, human
Protocol: A phase II, multi-centered, multinational, randomized, parallel-group, double-blinded, placebo-controlled study is conducted to evaluate the safety and efficacy of laquinimod (0.5, 1.0 and 1.5 mg/day) versus placebo in patients with HD.
This study includes 4 treatment arms, with approximately 100 patients per treatment arm and approximately 400 patients in total. The study is conducted in approximately 30 centers in Canada, USA and Europe.
The study population is comprised of patients with adult onset HD, with a cytosine-adenosine-guanine (CAG) repeat length between 40 and 49, inclusive. The basic eligibility criteria selects a population with symptoms of HD, as assessed by a Unified HD Rating Scale—Total Motor Score (UHDRS-TMS)>5, but with a largely retained functional capacity, as assessed with a Unified HD Rating Scale—Total Functional Capacity (UHDRS-TFC) score≧8.
The dose levels of laquinimod are 0.5 mg/day, 1.0 mg/day and 1.5 mg/day. Every patient takes 3 capsules once daily at the same time of the day for the whole study period.
The Laqunimod Treatment Arms are as follows: • 1.5 mg LAQ/day: patients randomized to laquinimod 1.5 mg qd (i.e., once daily) treatment arm receive 3 capsules of 0.5 mg laquinimod daily. • 1.0 mg LAQ/day: patients randomized to laquinimod 1.0 mg qd treatment arm receive 2 capsules of 0.5 mg laquinimod and 1 capsule of matching placebo daily. • 0.5 mg LAQ/day: patients randomized to laquinimod 0.5 mg qd treatment arm receive 1 capsule of 0.5 mg laquinimod and 2 capsules of matching placebo daily.
The 0.5 mg laquinimod capsules were prepared using 0.534 mg of laquinimod sodium per capsule (which is equivalent to 0.5 mg of laquinimod acid). The capsules were prepared using a blend proportional to the 0.6 mg capsules described in PCT International Application No. PCT/US2007/013721 (WO 2007/146248). The capsules were prepared according to the method described in PCT international Application No. PCT/US2007/013721 (WO 2007/146248), which is hereby incorporated by reference into this application.
This is a multinational, multicenter, randomized, double-blind, parallel-group, placebo-controlled study to evaluate the safety and clinical effect of daily oral administration of laquinimod (0.5 mg, 1.0 mg, or 1.5 mg) in patients with HD.
Patients are treated with laquinimod for 12 months, and safety and efficacy are assessed after 1, 3, 6, 9 and 12 months of treatment. Eligible subjects are randomized in a 1:1:1:1 ratio into one of the following treatment arms: • 1. Laquinimod capsule 0.5 mg (Total of 0.5 mg) • 2. Laquinimod capsules 0.5 mg×2 (Total of 1.0 mg) • 3. Laquinimod capsules 0.5 mg×3 (Total of 1.5 mg) • 4. Matching placebo
The following assessments are performed at the specified time points: • 1. Eligibility criteria is reviewed and confirmed at screening and baseline. • 2. Vital signs are measured at each study visit. • 3. A physical examination is performed at each study visit. • 4. The following safety clinical laboratory tests are performed: • a) Complete blood count (CBC) with differential at each study visit. • b) Serum chemistry (including electrolytes, liver enzymes, urea, creatinine, glucose, total protein, albumin, direct and total bilirubin, Creatinephosphokinase (CPK), serum conventional C-reactive protein (CRP), fibrinogen and pancreatic amylase)—at all scheduled visits. […]

[2] = 0.5, 1.0 and 1.5 mg/day oral vs Placebo Arm, 12 months

- Vd (clinical): ~10 L
- fraction unbound (clinical): < 0.02
- half-life (clinical): ~80 h
- bioavailability (clinical; po): ~90%
- oral clearance (clinical; po): ~0.09 L/h
- metabolism by CYP3A4 in the liver (CYP3A4): extensively metabolized
Compound: CCN(C(=O)c1c(O)c2c(Cl)cccc2n(C)c1=O)c1ccccc1 [laquinimod]
- effect on brain atrophy and disability progression [1]: benefit
- Progression (rate of change) of CIBIC-Plus global score (patients with HD; [2]): slower
- Progression (rate of change) of HADS (patients with HD; [2]): slower
- Progression (rate of change) of PBA (short) (patients with HD; [2]): slower
- Progression (rate of change) of Physical Performance Test (PPT) score (patients with HD; [2]): slower
- Progression (rate of change) of Q-motor assessments score (patients with HD; [2]): slower
- Progression (rate of change) of UHDRS-FA score (patients with HD; [2]): slower
- Progression (rate of change) of UHDRS-TMS (patients with HD; [2]): slower
- Progression (rate of change) of cognitive assessment battery (CAB) (patients with HD; [2]): slower
- Progression (rate of change) of deterioration of functional capacity, UHDRS-TFC score (patients with HD; [2]): slower
- Progression (rate of change) of work productivity and quality of life (HD-QoL) (patients with HD; [2]): slower
- Progression (rate of change) of brain atrophy (whole brain, caudate, white matter, ventricular volume) (patients with HD; 0.5, 1.0 and 1.5 mg/day oral vs Placebo Arm, MRI, 12 months): slower
- treatment of symptomatic early HD patients (patients with HD; 0.5, 1.0 and 1.5 mg/day oral, UHDRS-TMS >5 and/or UHDRS-TFC ≧8 at baseline): effective
